These results are taken from ChEMBL document CHEMBL1201862, “PubChem BioAssay data set” (2004).

The source made the active and inactive calls. Some results are limits rather than exact numbers.

Usually IC50 stands for the concentration at which inhibition is half-maximal. As a reminder, the CC50 is the concentration that lowers cell viability or growth by half. The AC50 is the midpoint of the concentration-response curve, whichever way the signal moves. As usually defined, the Ki is a dissociation constant, usually derived from enzyme kinetics or from competition with a known ligand.

One experiment has as its system HEK293. Nature of the experiment: membrane integrity loss in HEK cells – cell-based, fluorescence, cytotoxicity control for IDE activator project, dose response (AID 588440).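 Note: cytotoxicity by LDH release measuring loss of membrane integrity.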 The settings on record: Homo sapiens. The format is functional.
The target in experiment [1] is T1, Ubiquitin-conjugating enzyme E2 N (Homo sapiens, UniProt P61088).
T1 sequence (P61088 whole entry): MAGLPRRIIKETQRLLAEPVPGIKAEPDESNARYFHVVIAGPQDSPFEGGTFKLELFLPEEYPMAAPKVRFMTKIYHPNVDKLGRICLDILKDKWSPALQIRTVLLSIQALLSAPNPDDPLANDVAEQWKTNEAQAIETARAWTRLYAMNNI
In kind it is functional.

Experiment [2] can be described thus: protection from phage-mediated lysis, alamar blue read-out – E. coli UTI89, K1F phage, bacterial capsule biogenesis inhibitors (AID 488966). In kind it is functional. Background: Resazurin is reduced to fluorescent resorufin, in cell work by metabolically active cells.
A short description of experiment [3]: viability loss in HeLa cells – cytotoxicity control for MgcRacGAP inhibitor project, dose response (AID 624300). The format is functional.
Experiment [4] is described as follows: reduced cellular PGC1a acetyl-lysine signal – cell-based, cherry-picked samples, dose response (AID 720514).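 Note: potency may reflect raised or lowered acetylation signal.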 The format is functional.
The target of experiment [5] is T2, Mannose-6-phosphate isomerase (Homo sapiens, UniProt P34949).
T2 sequence (P34949 whole entry): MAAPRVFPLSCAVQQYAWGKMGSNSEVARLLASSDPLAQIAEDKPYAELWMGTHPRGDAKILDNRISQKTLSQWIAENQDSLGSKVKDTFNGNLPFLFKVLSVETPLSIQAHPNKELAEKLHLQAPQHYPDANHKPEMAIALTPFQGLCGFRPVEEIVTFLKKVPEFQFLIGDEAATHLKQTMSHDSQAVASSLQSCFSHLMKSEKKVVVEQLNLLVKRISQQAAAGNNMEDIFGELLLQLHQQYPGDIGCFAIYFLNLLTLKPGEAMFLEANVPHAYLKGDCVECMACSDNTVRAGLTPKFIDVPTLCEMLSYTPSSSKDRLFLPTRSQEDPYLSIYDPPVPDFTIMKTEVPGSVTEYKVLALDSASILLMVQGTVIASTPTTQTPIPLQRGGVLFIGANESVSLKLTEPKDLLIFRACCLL
Nature of the experiment: MPI inhibition at elevated mannose 6-phosphate – biochemical, fluorescence intensity, high mannose 6-phosphate, primary screen (AID 1220).

Experiment [6] has as its target RNA-editing ligase 1, mitochondrial (Trypanosoma brucei brucei, UniProt P86926). The experiment is described as follows: inhibition of trypanosome RNA editing ligase – biochemical, fluorescence, Trypanosoma brucei, dose response (AID 1117295). In kind it is functional.
In experiment [7] the target is T3, Sentrin-specific protease 8 (Homo sapiens, UniProt Q96LD8).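 Note: luminescence read-out of SENP8 inhibition, dose-response confirmation following an ultra-high-throughput screen.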
T3 sequence (Q96LD8 whole entry): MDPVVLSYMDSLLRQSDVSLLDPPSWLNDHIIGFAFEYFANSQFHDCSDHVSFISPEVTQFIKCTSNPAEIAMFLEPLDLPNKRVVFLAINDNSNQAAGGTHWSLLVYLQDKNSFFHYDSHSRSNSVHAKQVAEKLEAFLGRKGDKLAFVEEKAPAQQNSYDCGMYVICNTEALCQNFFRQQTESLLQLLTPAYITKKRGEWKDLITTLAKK
In kind it is functional.

Another experiment addresses T4, Caspase-3 (Homo sapiens, UniProt P42574).
T4 sequence (P42574 whole entry): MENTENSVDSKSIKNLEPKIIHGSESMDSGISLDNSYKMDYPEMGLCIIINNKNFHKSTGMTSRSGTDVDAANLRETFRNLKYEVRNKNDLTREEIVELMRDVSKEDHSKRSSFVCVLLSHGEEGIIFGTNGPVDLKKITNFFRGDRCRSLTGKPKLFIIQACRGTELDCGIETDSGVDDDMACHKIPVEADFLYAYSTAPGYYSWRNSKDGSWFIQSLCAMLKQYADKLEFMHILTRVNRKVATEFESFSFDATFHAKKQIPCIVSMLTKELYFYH
In kind it is functional.

The target of experiment [8] is Serine/threonine-protein kinase 3 (Homo sapiens, UniProt Q13188). The format is functional.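 Note: measured as one member of a kinome-wide kinase panel.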
Serine/threonine-protein kinase 3, sequence (Q13188 whole entry): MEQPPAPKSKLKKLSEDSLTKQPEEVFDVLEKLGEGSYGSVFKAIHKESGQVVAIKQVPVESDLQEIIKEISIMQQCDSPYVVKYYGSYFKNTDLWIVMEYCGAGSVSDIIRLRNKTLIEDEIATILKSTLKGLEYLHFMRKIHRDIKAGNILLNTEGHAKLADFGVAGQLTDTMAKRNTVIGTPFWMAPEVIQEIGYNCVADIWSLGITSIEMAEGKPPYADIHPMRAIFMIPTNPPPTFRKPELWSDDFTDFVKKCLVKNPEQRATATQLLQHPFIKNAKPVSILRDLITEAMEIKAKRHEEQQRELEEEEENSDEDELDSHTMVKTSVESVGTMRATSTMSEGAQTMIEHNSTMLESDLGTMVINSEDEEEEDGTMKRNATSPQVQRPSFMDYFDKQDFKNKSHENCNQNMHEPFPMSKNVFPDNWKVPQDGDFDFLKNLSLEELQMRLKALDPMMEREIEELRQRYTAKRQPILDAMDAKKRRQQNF
Experiment [9] has as its target MAP kinase-activated protein kinase 2 (Homo sapiens, UniProt P49137). The format is functional.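 Note: measured as one member of a kinome-wide kinase panel.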
The target of experiment [10] is Serine/threonine-protein kinase Nek2 (Homo sapiens, UniProt P51955). The format is functional.
Serine/threonine-protein kinase Nek2, sequence (P51955 whole entry): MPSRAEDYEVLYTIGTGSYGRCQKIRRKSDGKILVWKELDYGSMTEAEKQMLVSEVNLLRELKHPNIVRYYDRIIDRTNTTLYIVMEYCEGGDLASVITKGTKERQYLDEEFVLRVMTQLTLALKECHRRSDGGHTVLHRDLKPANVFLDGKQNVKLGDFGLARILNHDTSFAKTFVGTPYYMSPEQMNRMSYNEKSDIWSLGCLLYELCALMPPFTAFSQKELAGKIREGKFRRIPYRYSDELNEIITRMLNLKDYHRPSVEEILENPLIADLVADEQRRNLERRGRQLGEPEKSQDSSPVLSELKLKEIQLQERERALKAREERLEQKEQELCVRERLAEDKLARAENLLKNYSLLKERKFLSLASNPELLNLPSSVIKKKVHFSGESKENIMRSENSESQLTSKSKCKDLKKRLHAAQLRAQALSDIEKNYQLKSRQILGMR
For experiment [11], the target named is RAC-alpha serine/threonine-protein kinase (Homo sapiens, UniProt P31749). The format is functional.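 Note: AKT1 affinity measured as one member of a kinome-wide kinase profiling panel.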
RAC-alpha serine/threonine-protein kinase, sequence (P31749 whole entry): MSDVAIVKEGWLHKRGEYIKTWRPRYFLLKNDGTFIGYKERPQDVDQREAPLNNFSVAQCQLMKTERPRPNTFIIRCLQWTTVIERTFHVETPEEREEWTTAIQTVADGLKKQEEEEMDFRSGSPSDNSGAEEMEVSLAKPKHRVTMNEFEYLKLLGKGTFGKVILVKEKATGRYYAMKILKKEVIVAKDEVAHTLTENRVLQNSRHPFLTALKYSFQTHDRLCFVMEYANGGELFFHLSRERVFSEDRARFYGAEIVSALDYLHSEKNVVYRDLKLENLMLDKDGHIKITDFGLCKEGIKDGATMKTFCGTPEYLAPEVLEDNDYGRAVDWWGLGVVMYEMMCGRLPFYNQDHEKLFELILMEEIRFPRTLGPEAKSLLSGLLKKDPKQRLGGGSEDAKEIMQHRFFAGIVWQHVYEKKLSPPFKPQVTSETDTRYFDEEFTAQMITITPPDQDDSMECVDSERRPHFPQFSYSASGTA
Experiment [12] concerns the target Tyrosine-protein kinase Lck (Homo sapiens, UniProt P06239). In kind it is functional.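 Note: lck was assayed as one member of a kinase panel.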
Experiment [13] concerns the target Inhibitor of nuclear factor kappa-B kinase subunit beta (Homo sapiens, UniProt O14920). The format is functional.
The target of experiment [14] is Serine/threonine-protein kinase pim-2 (Homo sapiens, UniProt Q9P1W9). In kind it is functional.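 Note: value comes from a broad kinase panel profiling study in which PIM2 was one of the panel members.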
Serine/threonine-protein kinase pim-2, sequence (Q9P1W9 whole entry): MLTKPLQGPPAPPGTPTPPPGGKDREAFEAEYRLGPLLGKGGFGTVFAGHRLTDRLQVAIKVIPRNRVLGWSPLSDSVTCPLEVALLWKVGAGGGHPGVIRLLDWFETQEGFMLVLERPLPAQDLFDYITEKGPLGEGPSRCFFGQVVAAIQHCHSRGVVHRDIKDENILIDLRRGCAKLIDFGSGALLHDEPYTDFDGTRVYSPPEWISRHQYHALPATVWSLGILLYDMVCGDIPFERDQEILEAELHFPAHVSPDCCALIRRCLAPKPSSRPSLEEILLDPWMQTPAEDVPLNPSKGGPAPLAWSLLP
Experiment [15] has as its target Serine/threonine-protein kinase PLK4 (Homo sapiens, UniProt O00444). In kind it is functional.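 Note: PLK4 measured as one member of a kinome-wide kinase profiling panel.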
Experiment [16] has as its target Mitogen-activated protein kinase 1 (Homo sapiens, UniProt P28482). In kind it is functional.
In experiment [17] the target is MAP/microtubule affinity-regulating kinase 3 (Homo sapiens, UniProt P27448). The format is functional.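 Note: MARK3 affinity measured as one member of a kinome panel.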
Experiment [18] deals with Proto-oncogene tyrosine-protein kinase Src (Homo sapiens, UniProt P12931). The format is functional.
Proto-oncogene tyrosine-protein kinase Src, sequence (P12931 2-536 limits assumed): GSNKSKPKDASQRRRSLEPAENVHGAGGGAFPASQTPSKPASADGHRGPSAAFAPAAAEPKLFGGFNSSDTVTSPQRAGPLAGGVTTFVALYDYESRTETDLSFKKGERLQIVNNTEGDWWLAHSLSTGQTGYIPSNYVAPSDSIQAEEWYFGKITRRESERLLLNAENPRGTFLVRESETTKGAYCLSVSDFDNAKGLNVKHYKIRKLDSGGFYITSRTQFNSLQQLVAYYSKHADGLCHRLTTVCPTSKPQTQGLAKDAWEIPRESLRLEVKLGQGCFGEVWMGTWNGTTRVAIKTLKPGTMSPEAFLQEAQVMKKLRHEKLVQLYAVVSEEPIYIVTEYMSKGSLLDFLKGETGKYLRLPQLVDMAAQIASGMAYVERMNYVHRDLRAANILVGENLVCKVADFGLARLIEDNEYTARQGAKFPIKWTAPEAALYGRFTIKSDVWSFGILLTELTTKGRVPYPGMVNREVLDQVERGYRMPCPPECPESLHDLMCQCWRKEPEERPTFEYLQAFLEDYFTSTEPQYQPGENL

Serine/threonine-protein kinase PLK4, sequence (O00444 whole entry): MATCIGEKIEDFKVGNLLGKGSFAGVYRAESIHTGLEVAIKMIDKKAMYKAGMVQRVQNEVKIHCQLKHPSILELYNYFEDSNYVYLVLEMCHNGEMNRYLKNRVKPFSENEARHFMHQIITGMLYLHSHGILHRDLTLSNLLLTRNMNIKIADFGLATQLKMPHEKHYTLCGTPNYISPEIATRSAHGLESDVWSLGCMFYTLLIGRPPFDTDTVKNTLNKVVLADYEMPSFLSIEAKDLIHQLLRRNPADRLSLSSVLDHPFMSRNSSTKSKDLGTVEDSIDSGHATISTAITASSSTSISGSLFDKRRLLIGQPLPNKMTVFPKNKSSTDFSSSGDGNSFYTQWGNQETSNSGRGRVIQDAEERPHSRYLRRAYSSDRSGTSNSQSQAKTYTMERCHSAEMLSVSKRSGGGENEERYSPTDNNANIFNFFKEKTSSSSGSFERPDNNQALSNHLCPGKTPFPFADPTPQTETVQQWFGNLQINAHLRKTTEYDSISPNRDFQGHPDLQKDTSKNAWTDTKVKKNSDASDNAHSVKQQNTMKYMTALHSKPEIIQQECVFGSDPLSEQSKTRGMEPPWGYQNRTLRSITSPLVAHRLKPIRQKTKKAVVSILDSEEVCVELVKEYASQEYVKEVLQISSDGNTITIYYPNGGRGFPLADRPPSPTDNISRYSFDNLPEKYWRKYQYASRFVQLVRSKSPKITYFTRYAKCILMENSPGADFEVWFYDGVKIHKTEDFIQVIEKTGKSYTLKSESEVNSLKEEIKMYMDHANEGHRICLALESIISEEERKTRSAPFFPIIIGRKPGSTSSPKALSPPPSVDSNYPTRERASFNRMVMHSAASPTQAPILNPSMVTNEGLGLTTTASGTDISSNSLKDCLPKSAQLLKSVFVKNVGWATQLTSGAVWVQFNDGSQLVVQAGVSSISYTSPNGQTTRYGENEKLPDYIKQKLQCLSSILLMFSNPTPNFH
Mitogen-activated protein kinase 1, sequence (P28482 whole entry): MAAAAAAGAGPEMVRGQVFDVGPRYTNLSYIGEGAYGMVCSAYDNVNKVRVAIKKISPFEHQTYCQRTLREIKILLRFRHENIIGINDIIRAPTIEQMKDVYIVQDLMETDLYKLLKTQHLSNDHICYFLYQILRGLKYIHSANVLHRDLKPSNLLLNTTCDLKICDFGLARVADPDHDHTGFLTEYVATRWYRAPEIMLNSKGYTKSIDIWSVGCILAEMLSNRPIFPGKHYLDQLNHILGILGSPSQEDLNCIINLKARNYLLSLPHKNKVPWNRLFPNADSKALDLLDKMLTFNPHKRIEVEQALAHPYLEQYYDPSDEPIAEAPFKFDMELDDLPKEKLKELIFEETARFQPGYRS
Tyrosine-protein kinase Lck, sequence (P06239 whole entry): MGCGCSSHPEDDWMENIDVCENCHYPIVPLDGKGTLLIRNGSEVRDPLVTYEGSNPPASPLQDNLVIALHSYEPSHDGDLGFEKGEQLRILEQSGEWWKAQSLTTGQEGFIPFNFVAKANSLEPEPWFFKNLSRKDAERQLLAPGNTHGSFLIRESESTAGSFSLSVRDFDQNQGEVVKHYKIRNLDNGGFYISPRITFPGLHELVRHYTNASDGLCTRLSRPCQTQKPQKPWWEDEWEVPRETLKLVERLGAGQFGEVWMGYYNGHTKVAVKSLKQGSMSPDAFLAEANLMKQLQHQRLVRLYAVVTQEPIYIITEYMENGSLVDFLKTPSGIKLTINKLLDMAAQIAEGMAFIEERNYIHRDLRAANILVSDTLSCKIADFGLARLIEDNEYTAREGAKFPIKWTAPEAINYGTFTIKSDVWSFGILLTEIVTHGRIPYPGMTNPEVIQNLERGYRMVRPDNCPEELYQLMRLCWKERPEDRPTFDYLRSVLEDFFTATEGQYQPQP
MAP kinase-activated protein kinase 2, sequence (P49137 whole entry): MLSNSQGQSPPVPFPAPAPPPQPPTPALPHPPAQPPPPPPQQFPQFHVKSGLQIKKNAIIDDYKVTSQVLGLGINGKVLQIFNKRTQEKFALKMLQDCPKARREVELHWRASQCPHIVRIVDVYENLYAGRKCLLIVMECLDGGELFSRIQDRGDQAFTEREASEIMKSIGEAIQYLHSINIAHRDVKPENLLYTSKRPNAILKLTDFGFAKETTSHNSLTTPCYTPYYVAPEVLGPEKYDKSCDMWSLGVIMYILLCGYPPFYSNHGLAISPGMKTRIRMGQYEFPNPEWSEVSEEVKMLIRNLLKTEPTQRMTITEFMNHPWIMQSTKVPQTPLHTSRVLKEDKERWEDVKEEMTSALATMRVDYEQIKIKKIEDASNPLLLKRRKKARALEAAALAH
RNA-editing ligase 1, mitochondrial, sequence (P86926 whole entry): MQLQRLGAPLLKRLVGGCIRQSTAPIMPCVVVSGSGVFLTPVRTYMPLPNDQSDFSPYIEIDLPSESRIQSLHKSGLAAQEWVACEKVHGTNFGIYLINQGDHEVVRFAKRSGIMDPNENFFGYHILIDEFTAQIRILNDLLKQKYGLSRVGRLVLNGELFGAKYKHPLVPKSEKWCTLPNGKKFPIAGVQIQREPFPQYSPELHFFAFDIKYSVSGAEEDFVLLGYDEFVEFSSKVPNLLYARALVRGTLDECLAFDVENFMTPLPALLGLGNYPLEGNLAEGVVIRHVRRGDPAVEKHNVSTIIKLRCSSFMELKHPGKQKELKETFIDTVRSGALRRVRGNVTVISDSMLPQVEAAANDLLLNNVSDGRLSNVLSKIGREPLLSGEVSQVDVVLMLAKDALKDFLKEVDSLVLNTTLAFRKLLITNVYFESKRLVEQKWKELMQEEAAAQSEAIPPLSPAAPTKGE

Consider `Cc1cc(N)c2cc(NC(=O)/C=C/c3ccccc3Cl)ccc2n1`, for which the figures for the IC50 (in the experiment with HEK293; in experiment [1]; in experiment [2]) were 2.63 µM (active), 3 µM (active) and > 75 µM (active), respectively. Besides, the CC50 in experiment [3] was 5.35 µM (active). For the same compound, the AC50 in experiment [4] is 1.97 µM (active).

With `CCC(C)NC(=O)c1c(N)n(CCCOC)c2nc3ccccc3nc12` (stereo not given), the IC50 in experiment [5] was > 50 µM (not active); in [6], 15.1 µM (inactive); in experiment [7], 2.06 µM (active); at Caspase-3, 6.15 µM (active).

Take `CC(=NNC(=N)N)c1cc(NC(=O)NCCCCCCNC(=O)Nc2cc(C(C)=NNC(=N)N)cc(C(C)=NNC(=N)N)c2)cc(C(C)=NNC(=N)N)c1`: the Ki in [8] was 0.501 µM (active); in experiment [9], 0.631 µM (active); in experiment [10] it was 3.16 µM (active); in experiment [11] it was 0.398 µM (active); in experiment [12], > 2.51 µM (inactive); in [13], > 3.16 µM (inactive). In addition, the inhibition constant (Ki) in experiment [14] was 0.2 µM (active); in experiment [15], > 3.98 µM (inactive); in experiment [16] it was > 7.94 µM (inactive); in experiment [17], 2 µM (active); in experiment [18] it was > 5.01 µM (inactive).
